Laboratory results from article PMC8942544, “Design and synthesis of benzodiazepines as brain penetrating PARP-1 inhibitors” (Journal of Enzyme Inhibition and Medicinal Chemistry, 2022).

Biological target: T1, PARP-1 (Homo sapiens, UniProt P09874)
T1 construct: purchased BPS Bioscience 80580
Experiment: PARP-1 enzyme inhibition assay (BPS Bioscience PARP Colorimetric Assay Kit)
Type: biochemical
Settings: compound concentration 50 nM; three independent tests
Procedure: All target compounds were evaluated for PARP-1 enzyme inhibition activity at the concentration of 50 nM determined by previous pre-experiments.
The ability of the compounds to inhibit PARP-1 enzyme activity was assessed using BPS Bioscience's PARP Colorimetric Assay Kit (BPS Bioscience, Catalog # 80580). PARP-1 is known to catalyse the NAD-dependent addition of poly(ADP-ribose) to histones. The PARP-1 assay kit comes in a convenient 96-well format, with purified PARP-1 enzyme, histone mixture, activated DNA, and PARP-1 assay buffer. The key to the PARP-1 Colorimetric Activity Assay is the biotinylated substrate. With this kit, only three simple steps are required for PARP-1 reactions. First, histone proteins are coated on a 96-well plate. Next, the PARP-1 biotinylated substrate is incubated with an assay buffer that contains the PARP-1 enzyme. Finally, the plate is treated with streptavidin-HRP followed by the addition of the colorimetric HRP substrate to produce colour that can then be measured using a UV/Vis spectrophotometer microplate reader. IC50 values were calculated using GraphPad Prism5 software.

T1 sequence (P09874 whole entry): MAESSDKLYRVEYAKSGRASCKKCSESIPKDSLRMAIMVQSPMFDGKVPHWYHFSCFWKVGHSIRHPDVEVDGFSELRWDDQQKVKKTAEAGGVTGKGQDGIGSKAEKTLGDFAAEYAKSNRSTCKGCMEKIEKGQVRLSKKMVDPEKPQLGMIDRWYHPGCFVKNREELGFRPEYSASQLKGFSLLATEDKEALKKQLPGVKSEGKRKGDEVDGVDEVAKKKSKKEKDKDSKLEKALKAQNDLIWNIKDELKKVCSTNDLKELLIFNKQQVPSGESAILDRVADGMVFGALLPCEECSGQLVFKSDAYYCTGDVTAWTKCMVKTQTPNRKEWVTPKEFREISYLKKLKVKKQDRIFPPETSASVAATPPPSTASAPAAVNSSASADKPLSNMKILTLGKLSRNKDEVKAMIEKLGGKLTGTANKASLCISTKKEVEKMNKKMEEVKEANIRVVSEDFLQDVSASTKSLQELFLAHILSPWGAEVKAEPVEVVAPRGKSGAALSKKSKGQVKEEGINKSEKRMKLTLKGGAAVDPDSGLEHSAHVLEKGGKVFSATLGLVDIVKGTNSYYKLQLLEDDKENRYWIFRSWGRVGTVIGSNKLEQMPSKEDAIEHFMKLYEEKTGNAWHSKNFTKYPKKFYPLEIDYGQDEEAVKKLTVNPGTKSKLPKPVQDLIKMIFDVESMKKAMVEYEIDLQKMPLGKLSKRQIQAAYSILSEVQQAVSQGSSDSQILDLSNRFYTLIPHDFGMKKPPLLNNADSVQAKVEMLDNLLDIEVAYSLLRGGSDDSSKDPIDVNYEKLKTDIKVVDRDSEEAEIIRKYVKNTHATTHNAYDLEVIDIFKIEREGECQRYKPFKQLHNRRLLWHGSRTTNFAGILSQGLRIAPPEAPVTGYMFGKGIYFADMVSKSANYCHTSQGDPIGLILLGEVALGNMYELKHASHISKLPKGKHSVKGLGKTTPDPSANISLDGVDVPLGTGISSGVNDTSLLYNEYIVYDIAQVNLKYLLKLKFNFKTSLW

SMILES	inhibition at 0.05 µM
C[C@@H]1CN(c2ccc(C3CNC(=O)c4ccccc4N3)cc2)C[C@H](C)O1 (stereo partly drawn) [Compound H55, 2-(4-((2S,6R)-2,6-dimethylmorpholino)phenyl)-1,2,3,4-tetrahydro-5H-benzo[e][1,4]diazepin-5-one]	39.3 ± 5.2%
N#Cc1ccc(C2=Nc3ccccc3C(=O)NC2)cc1 [Compound H12, 4-(5-Oxo-4,5-dihydro-3H-benzo[e][1,4]diazepin-2-yl)benzonitrile]	15.7 ± 4.1%
COc1cccc(C2=Nc3ccccc3C(=O)NC2)c1 [Compound H7, 2-(3-Methoxyphenyl)-3,4-dihydro-5H-benzo[e][1,4]diazepin-5-one]	34.7 ± 2.9%
CC(C)N1CCN(c2ccc(C3CNC(=O)c4ccccc4N3)cc2)CC1 (stereo not shown) [Compound H53, 2-(4-(4-Isopropylpiperazin-1-yl)phenyl)-1,2,3,4-tetrahydro-5H-benzo[e][1,4]diazepin-5-one]	29.9 ± 3.4%
Cn1cc(-c2ccc(C3=Nc4ccccc4C(=O)NC3)cc2)cn1 [Compound H33, 2-(4-(1-Methyl-1H-pyrazol-4-yl)phenyl)-3,4-dihydro-5H-benzo[e][1,4]diazepin-5-one]	46.5 ± 3.2%
O=C1NCC(c2ccc(-c3ccc4[nH]c5ccccc5c4c3)cc2)=Nc2ccccc21 [Compound H46, 2-(4-(9H-carbazol-3-yl)phenyl)-3,4-dihydro-5H-benzo[e][1,4]diazepin-5-one]	14.9 ± 8.2%
O=C1NCC(c2cc(F)cc(F)c2)=Nc2ccccc21 [Compound H15, 2-(3,5-Difluorophenyl)-3,4-dihydro-5H-benzo[e][1,4]diazepin-5-one]	36.9 ± 1.4%
O=C1NCC(c2ccc(-c3cn[nH]c3)cc2)=Nc2ccccc21 [Compound H32, 2-(4-(1H-pyrazol-4-yl)phenyl)-3,4-dihydro-5H-benzo[e][1,4]diazepin-5-one]	48.6 ± 1.2%
CN1CC=C(c2ccc(C3=Nc4ccccc4C(=O)NC3)cc2)CC1 [Compound H45, 2-(4-(1-Methyl-1,2,3,6-tetrahydropyridin-4-yl)phenyl)-3,4-dihydro-5H-benzo[e][1,4]diazepin-5-one]	42.5 ± 6%
O=C1NCC(c2ccc(O)cc2)=Nc2ccccc21 [Compound H13, 2-(4-Hydroxyphenyl)-3,4-dihydro-5H-benzo[e][1,4]diazepin-5-one]	37.9 ± 2.3%
CC1NC(=O)c2ccccc2NC1c1ccc(Br)cc1 (stereo not shown) [Compound H31, 2-(4-Bromophenyl)-3-methyl-1,2,3,4-tetrahydro-5H-benzo[e][1,4]diazepin-5-one]	28.5 ± 3.4%
O=C1NCC(c2ccc(Cl)c(Cl)c2)=Nc2ccccc21 [Compound H17, 2-(3,4-Dichlorophenyl)-3,4-dihydro-5H-benzo[e][1,4]diazepin-5-one]	34.4 ± 3.6%
O=C1NCCCc2ccccc21 [Compound H2]	5.2 ± 3.1%
COc1ccc(C2=Nc3ccccc3C(=O)NC2)cc1OC [Compound H16, 2-(3,4-Dimethoxyphenyl)-3,4-dihydro-5H-benzo[e][1,4]diazepin-5-one]	24.4 ± 3.2%
Nc1ccc(-c2ccc(C3=Nc4ccccc4C(=O)NC3)cc2)cn1 [Compound H38, 2-(4-(6-Aminopyridin-3-yl)phenyl)-3,4-dihydro-5H-benzo[e][1,4]diazepin-5-one]	34.7 ± 4.2%
COc1ccc(C2=Nc3ccccc3C(=O)NC2)cc1 [Compound H6, 2-(4-Methoxyphenyl)-3,4-dihydro-5H-benzo[e][1,4]diazepin-5-one]	31.9 ± 1.2%
